Reference: patent publication US8003655B2, “Substituted sulphoximines as TIE2 inhibitors and salts thereof, pharmaceutical compositions comprising same, methods of preparing same and uses of same” (Bayer Schering Pharma AG, priority 2006, dated 2011)

Tests used:
Assay type in all cases: biochemical
Tie2 = target: T1, Tie2 (Homo sapiens, UniProt Q02763); assay: Tie2-Kinase HTRF-Assay without kinase preactivation (assay 2); conditions: 10 μM ATP, pIC50 = −log IC50 in molar concentration, read-out: Tie 2 activity (assay 2)
T1 construct: A recombinant fusion protein of GST and the intracellular domains of Tie2; GST; made in house; host or cells: insect cells (Hi-5)
T1 sequence (Q02763 770-1124 limits assumed): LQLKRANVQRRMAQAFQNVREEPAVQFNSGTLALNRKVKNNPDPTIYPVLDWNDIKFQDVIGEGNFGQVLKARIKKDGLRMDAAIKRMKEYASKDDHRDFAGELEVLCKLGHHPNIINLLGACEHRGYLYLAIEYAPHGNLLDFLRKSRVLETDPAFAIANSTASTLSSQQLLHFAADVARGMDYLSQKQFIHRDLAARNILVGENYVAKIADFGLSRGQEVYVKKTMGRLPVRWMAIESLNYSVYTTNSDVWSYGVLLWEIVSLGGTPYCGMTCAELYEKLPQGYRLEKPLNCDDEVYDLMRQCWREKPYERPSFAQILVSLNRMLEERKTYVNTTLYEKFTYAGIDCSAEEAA
Text: Tie2-inhibitory activity of compounds of the present invention was quantified employing two Tie2 HTRF assay as described in the following paragraphs.
A recombinant fusion protein of GST and the intracellular domains of Tie2, expressed in insect cells (Hi-5) and purified by Glutathion-Sepharose affinity chromatography was used as kinase. Alternatively, commercially available GST-Tie2-fusion protein (Upstate Biotechnology, Dundee, Scotland) can be used as substrate for the kinase reaction the biotinylated peptide biotin-Ahx-EPKDDAYPLYSDFG (C-terminus in amid form) was used which can be purchased e.g. from the company Biosynthan GmbH (Berlin-Buch, Germany). Detection of phosphorylated product is achieved specifically by a trimeric detection complex consisting of the phosphorylated substrate, streptavidin-XLent (SA-XLent) which binds to biotin, and Europium Cryptate-labeled anti-phosphotyrosine antibody PT66 which binds to phosphorylated tyrosine.
Tie2 (3.5 ng/measurement point) was incubated for 60 min at 22° C. in the presence of 10 μM adenosine-tri-phosphate (ATP) and 1 μM substrate peptide (biotin-Ahx-EPKDDAYPLYSDFG-NH2) with different concentrations of test compounds (0 μM and concentrations in the range 0.001-20 μM) in 5 μl assay buffer [50 mM Hepes/NaOH pH 7, 10 mM MgCl2, 0.5 mM MnCl2, 1.0 mM dithiothreitol, 0.01% NP40, protease inhibitor mixture (“Complete w/o EDTA” from Roche, 1 tablet per 2.5 ml), 1% (v/v) dimethylsulfoxide]. The reaction was stopped by the addition of 5 μl of an aqueous buffer (25 mM Hepes/NaOH pH 7.5, 0.28% (w/v) bovine serum albumin) containing EDTA (90 mM) and the HTRF (Homogeneous Time Resolved Fluorescence) detection reagents streptavidine-XLent (0.2 μM, from Cis Biointernational, Marcoule, France) and PT66-Eu-Chelate (0.3 ng/μl; a europium-chelate labelled anti-phospho-tyrosine antibody from Perkin Elmer).
(§1) The resulting mixture was incubated 1 h at 22° C. to allow the binding of the biotinylated phosphorylated peptide to the streptavidine-XLent and the PT66-Eu-Chelate. Subsequently the amount of phosphorylated substrate peptide was evaluated by measurement of the resonance energy transfer from the PT66-Eu-Chelate to the streptavidine-XLent. Therefore, the fluorescence emissions at 620 nm and 665 nm after excitation at 350 nm was measured in a HTRF reader, e.g. a Rubystar (BMG Labtechnologies, Offenburg, Germany) or a Viewlux (Perkin-Elmer). The ratio of the emissions at 665 nm and at […] was taken as the measure for the amount of phosphorylated substrate peptide. The data were normalised (enzyme reaction without inhibitor=0% inhibition, all other assay components but no enzyme=100% inhibition) and IC50 values were calculated by a 4 parameter fit using an inhouse software.

CDK2/CycE = target: T2, CDK2/CycE (Homo sapiens, UniProt P24941); assay: CDK2 HTRF Assay (assay 4); conditions: 10 μM ATP, pIC50 = −log IC50 in molar concentration
T2 construct: GST; purchased ProQinase GmbH (Freiburg, Germany); host or cells: insect cells (Sf9)
Text: CDK2/CycE-inhibitory activity of compounds of the present invention was quantified employing the CDK2/CycE HTRF assay as described in the following paragraphs.
Recombinant fusion proteins of GST and human CDK2 and of GST and human CycE, expressed in insect cells (Sf9) and purified by Glutathion-Sepharose affinity chromatography, were purchase from ProQinase GmbH (Freiburg, Germany). As substrate for the kinase reaction biotinylated peptide biotin-Ttds-YISPLKSPYKISEG (C-terminus in amid form) was used which can be purchased e.g. form the company JERINI peptide technologies (Berlin, Germany).
CDK2/CycE was incubated for 60 min at 22° C. in the presence of different concentrations of test compounds in 5 μl assay buffer [50 mM Tris/HCl pH 8.0, 10 mM MgCl2, 1.0 mM dithiothreitol, 0.1 mM sodium ortho-vanadate, 10 μM adenosine-tri-phosphate (ATP), 0.75 μM substrate, 0.01% (v/v) Nonidet-P40 (Sigma), 1% (v/v) dimethylsulfoxide]. The concentration of CDK2/CycE was adjusted depending of the activity of the enzyme lot and was chosen appropriate to have the assay in the linear range, typical concentrations were in the range of 1 ng/ml. The reaction was stopped by the addition of 5 μl of a solution of HTRF detection reagents (0.2 μM streptavidine-XLent and 3.4 nM Phospho-(Ser) CDKs Substrate Antibody [product #2324B, Cell Signalling Technology, Danvers, Mass., USA} and 4 nM Prot-A-EuK [Protein A labeled with Europium Cryptate from Cis biointernational, France, product no. 61PRAKLB]) in an aqueous EDTA-solution (100 mM EDTA, 800 mM KF, 0.2% (w/v) bovine serum albumin in 100 mM HEPES/NaOH pH 7.0).

preactivated Tie2 = target: T3, preactivated Tie2 (Homo sapiens, UniProt Q02763); assay: Tie2-Kinase HTRF-Assay with kinase preactivation (assay 3); conditions: 10 μM ATP, pIC50 = −log IC50 in molar concentration, read-out: Tie 2 activity (assay 3)
T3 construct: A recombinant fusion protein of GST and the intracellular domains of Tie2; GST; made in house; host or cells: insect cells (Hi-5)
T3 sequence (Q02763 770-1124 limits assumed): as above
Procedure: Assay 3: Tie2-Kinase HTRF-Assay with Kinase Preactivation
A recombinant fusion protein of GST and the intracellular domains of Tie2, expressed in insect cells (Hi-5) and purified by Glutathion-Sepharose affinity chromatography was used as kinase. As substrate for the kinase reaction the biotinylated peptide biotin-Ahx-EPKDDAYPLYSDFG (C-terminus in amid form) was used which can be purchased e.g. from the company Biosynthan GmbH (Berlin-Buch, Germany).
For activation, Tie2 was incubated at a conc. 12.5 ng/μl of for 20 min at 22° C. in the presence of 250 μM adenosine-tri-phosphate (ATP) in assay buffer [50 mM Hepes/NaOH pH 7, 10 mM MgCl2, 0.5 mM MnCl2, 1.0 mM dithiothreitol, 0.01% NP40, protease inhibitor mixture (“Complete w/o EDTA” from Roche, 1 tablet per 2.5 ml)].
For the subsequent kinase reaction, the preactivated Tie2 (0.5 ng/measurement point) was incubated for 20 min at 22° C. in the presence of 10 μM adenosine-tri-phosphate (ATP) and 1 μM substrate peptide (biotin-Ahx-EPKDDAYPLYSDFG-NH2) with different concentrations of test compounds (0 μM and concentrations in the range 0.001-20 μM) in 5 μl assay buffer [50 mM Hepes/NaOH pH 7, 10 mM MgCl2, 0.5 mM MnCl2, 0.1 mM sodium ortho-vanadate, 1.0 mM dithiothreitol, 0.01% NP40, protease inhibitor mixture (“Complete w/o EDTA” from Roche, 1 tablet per 2.5 ml), 1% (v/v) dimethylsulfoxide]. The reaction was stopped by the addition of 5 μl of an aqueous buffer (25 mM Hepes/NaOH pH 7.5, 0.28% (w/v) bovine serum albumin) containing EDTA (90 mM) and the HTRF (Homogeneous Time Resolved Fluorescence) detection reagents streptavidine-XLent (0.2 μM, from Cis Biointernational, Marcoule, France) and PT66-Eu-Chelate (0.3 ng/μl; a europium-chelate labelled anti-phospho-tyrosine antibody from Perkin Elmer).
as §1

| Structure (SMILES) | IC50 (Tie2) [nM] | IC50 (CDK2/CycE) [µM] | IC50 (preactivated Tie2) [nM] |
| --- | --- | --- | --- |
| CCOC(=O)N=S(C)(=O)c1cccc(Nc2ncc(-c3ccc(NC(=O)Nc4cc(C(F)(F)F)ccc4F)c(F)c3)c(SC)n2)c1 (racemic) [Example 17, 1-{4-[2-({3-[(RS)-N-(Ethoxycarbonyl)-S-methylsulfonimidoyl]phenyl}amino)-4-(methylsulfanyl)pyrimidin-5-yl]-2-fluorophenyl}-3-[2-fluoro-5-(trifluoromethyl)phenyl]urea] | < 100 | > 10 |  |
| C[C@H](CO)Nc1nc(Nc2ccc(S(C)(=N)=O)cc2)ncc1-c1ccc(NS(=O)(=O)c2cccc(Cl)c2Cl)cc1 (mixture of isomers) [Example 24] | 100 to 1000 | > 10 |  |
| CCOC(=O)N=S(C)(=O)c1ccc(Nc2ncc(-c3ccc(NC(=O)Nc4ccccc4)cc3)c(N[C@H](C)CO)n2)cc1 (mixture of isomers) [Example 6, 1-{4-[2-({4-[(RS)-N-(Ethoxycarbonyl)-S-methylsulfonimidoyl]phenyl}amino)-4-{[(R)-2-hydroxy-1-methylethyl]amino}-pyrimidin-5-yl]-phenyl}-3-[phenyl]urea] | 100 to 1000 | > 10 |  |
| CCOC(=O)N=S(C)(=O)c1ccc(Nc2ncc(-c3ccc(NC(=O)C4(c5ccccc5)CC4)cc3)c(N[C@H](C)CO)n2)cc1 (mixture of isomers) [Example 1, N-{4-[2-({4-[(RS)-N-(Ethoxycarbonyl)-S-methylsulfonimidoyl]phenyl}amino)-4-{[(R)-2-hydroxy-1-methylethyl]amino}-pyrimidin-5-yl]phenyl}-1-phenylcyclopropanecarboxamide] | 100 to 1000 | > 10 |  |
| CCOC(=O)N=S(C)(=O)c1cccc(Nc2ncc(-c3ccc(NS(=O)(=O)c4cccc(Cl)c4Cl)cc3)c(N[C@H](C)CO)n2)c1 (mixture of isomers) [Example 2, 2,3-Dichloro-N-{4-[2-({3-[(RS)-N-(ethoxycarbonyl)-S-methylsulfonimidoyl]phenyl}amino)-4-{[(R)-2-hydroxy-1-methylethyl]amino}pyrimidin-5-yl]-phenyl}benzenesulfonamide] | 100 to 1000 | > 10 | 100 to 1000 |
| CCOC(=O)N=S(C)(=O)c1cccc(Nc2ncc(-c3ccc(NC(=O)Nc4cccc(C(F)(F)F)c4)cc3)c(N[C@H](C)CO)n2)c1 (mixture of isomers) [Example 10, 1-{4-[2-({3-[(RS)-N-(Ethoxycarbonyl)-S-methylsulfonimidoyl]phenyl}amino)-4-{[(R)-2-hydroxy-1-methylethyl]amino}-pyrimidin-5-yl]-phenyl}-3-[3-(trifluoromethyl)-phenyl]urea] | 100 to 1000 | > 10 |  |
| CC(C)NC(=O)N=S(C)(=O)c1cccc(Nc2ncc(-c3ccc(NC(=O)Nc4cccc(C(F)(F)F)c4)cc3)c(N[C@H](C)CO)n2)c1 (mixture of isomers) [Example 14, 1-{4-[4-{[(R)-2-hydroxy-1-methylethyl]amino}-2-({3-[(RS)-N-(isopropylcarbamoyl) -S-methylsulfonimidoyl]phenyl}amino)-pyrimidin-5-yl]phenyl}-3-[3-(trifluoromethyl)-phenyl]urea] | 100 to 1000 | > 10 |  |

Results, then the molecule that gave them:

| IC50 (Tie2) [nM] | IC50 (CDK2/CycE) [µM] | IC50 (preactivated Tie2) [nM] | Structure (SMILES) |
| --- | --- | --- | --- |
| < 100 | > 10 |  | C[C@H](CO)Nc1nc(Nc2cccc(S(C)(=N)=O)c2)ncc1-c1ccc(NC(=O)Nc2cccc(C(F)(F)F)c2)cc1 (mixture of isomers) [Example 39, 1-[4-(4-{[(R)-2-Hydroxy-1-methylethyl]amino}-2-{[3-(RS)-(S-methylsulfonimidoyl)phenyl]amino}-pyrimidin-5-yl)phenyl]-3-[3-(trifluoromethyl)-phenyl]urea] |
| < 100 | > 10 |  | CSc1nc(Nc2cccc(S(C)(=N)=O)c2)ncc1-c1ccc(NC(=O)Nc2cc(C(F)(F)F)ccc2F)c(F)c1 (racemic) [Example 44, 1-{2-Fluoro-4-[2-{[3-(RS)-(S-methylsulfonimidoyl)phenyl]amino}-4-(methylthio)-pyrimidin-5-yl]phenyl}-3-[2-fluoro-5-(trifluoromethyl)-phenyl]urea] |
| 100 to 1000 | > 10 |  | CS(=N)(=O)c1cccc(Nc2ncc(-c3ccc(NC(=O)Nc4cc(C(F)(F)F)ccc4F)c(F)c3)c(NCCc3ccccc3)n2)c1 (racemic) [Example 48, 1-[2-Fluoro-4-(2-{[3-(RS)-(S-methylsulfonimidoyl)phenyl]amino}-4-[(2-phenylethyl)amino]-pyrimidin-5-yl)phenyl]-3-[2-fluoro-5-(trifluoromethyl)-phenyl]urea] |
| < 100 | > 10 |  | CCOC(=O)N=S(C)(=O)c1cccc(Nc2ncc(-c3ccc(NC(=O)Nc4cc(C(F)(F)F)ccc4F)c(F)c3)c(NCCN3CCOCC3)n2)c1 (racemic) [Example 29, 1-{4-[2-({3-[(RS)-N-(Ethoxycarbonyl)-S-methylsulfonimidoyl]phenyl}amino)-4-{[2-(morpholin-4-yl)ethyl]amino}pyri-midin-5-yl]-2-fluorophenyl}-3-[2-fluoro-5-(trifluoromethyl)-phenyl]urea] |
